Reference: US11523980B2, “Use of a peptide for the treatment of epiderm” (Sederma, priority 2018, dated 2022)
Marks after values point to notes of the source that are not given here. Residues, ends and D or L forms follow the SMILES beside them. *: point of attachment. Palmitoyl = CCCCCCCCCCCCCCCC(=O)*

Experiments:
confluent keratinocytes = experiment: Intracellular calcium mobilization in confluent keratinocytes (fluorescent calcium probe); type: cell-based, human; settings: 6 or 15 ppm; visible after about 30 minutes of contact
Protocol: Confluent keratinocytes were loaded with a specific calcium probe. This molecule becomes very fluorescent in the presence of intracellular free calcium. The appearance of fluorescence under the microscope was monitored. The cells, once loaded, were rinsed and then received the peptide according to the invention at 6 or 15 ppm or a positive control (bradykinin).
A study of the variances and a t test of Student were carried out in order to judge the significance of the results (n=3 for each condition).

Lnc-RNA ANCR = Lnc-RNA ANCR expression (qRT-PCR) in confluent keratinocytes; type: cell-based, human; settings: 24 h
Protocol: In this test confluent keratinocytes were contacted with the peptide according to the invention for 24 hours, then the cells were rinsed, ground and their RNAs were extracted, converted into DNA and then analyzed by qRT-PCR.
A study of the variances and a Student's t-test were carried out in order to judge the significance of the results (n=4 for each condition).

desmoglein = experiment: Desmoglein fluorescence immunohistology on abdominal skin explant; type: cell-based, human; settings: cream containing 6 ppm applied daily, 6 days, vs placebo cream
Excerpt: (§1) Desmoglein was searched on sections of abdominal skin (person) who had received a cream containing 6 ppm of the peptide according to the invention or the placebo cream. After 6 days (cream applied daily), the skins were frozen and sectioned to look for desmoglein using antibodies against this protein (fluorescence immunohistology). Photos were captured using a fluorescence microscope and the images analyzed using suitable software. The results were compared to those of the placebo cream.

[1] = test system: normal human keratinocytes (NHK); experiment: LC-MS/MS study of proteins in NHK culture (7 days); type: cell-based; settings: 4 ppm
Excerpt: The same culture protocol as for the DNA-Array (1.1/above) was used but with a longer culture time (7 days), the protein productions taking longer to be detected with this LC-MS/MS method. The NHK culture medium (n=3) was changed every 3 days. At the end of this contact, the cells were lysed so as to extract the proteins and to analyze them in the form of crushed material by a method associating the action of a protease on the crushed material, the separation of the fragments by coupled liquid chromatography to mass spectrometry, then the identification and concentration of pre-existing proteins according to the nature and quantity of fragments obtained (LC-MS/MS). To conduct LC-MS/MS analysis on equivalent amounts of protein, the protein concentration was measured on the crushed material.
(§2) A study of the variances and a Student's t test were carried out in order to judge the significance of the results.

NHKs exposed to UVB = experiment: Secretome of pro-inflammatory mediators by NHKs exposed to UVB (ELISA); type: cell-based, human; settings: NHK + UVB
Protocol: To test the active, keratinocytes were cultured under mild stress conditions (application of UVB radiation) so as to mimic experimental micro-inflammation of the skin. In this situation a significant decrease in their secretome of inflammation mediators will be interpreted in the sense of a repairing and protective action of the skin.
NHKs in culture and at confluence were brought into contact with the peptide according to the invention (or its solvent) for 24 hours in a medium allowing their survival, then the mats were irradiated with UVB in a physiological buffer and placed back into contact with products to be tested for 24 hours. At the end of this incubation, the culture media were assayed by ELISA in order to know the quantities of pro-inflammatory mediators produced by these cells in response to irradiation. The results were compared with solvent control +/−irradiation. A cellular respiration test was conducted to evaluate the number of cells and standardize the results.
as §2

[2] = test system: α-crystallin protein in reconstructed skin epidermis; experiment: α-crystallin immunohistology on reconstructed skins; type: cell-based, human; settings: for α-cristallin % of variation/control: reconstructed skin epidermis, 24 hours then following 18 days
Protocol: Normal human fibroblasts were seeded in a matrix. A few days after keratinocytes were deposited on this equivalent dermis to form a uniform layer of cells. At this stage the whole was passed to an air-liquid interface (emersion) so as to form a pluristratified epidermis. After 21 days (approximately), a mature skin equivalent was obtained (with an epidermis comprising the stratum corneum).
On the eve of the emergence phase, the layer of confluent human keratinocytes of these skins received the peptide according to the invention for 24 hours and then for the following 18 days (period of formation of the epidermis). Cryo-sections (7 μm) were made and the α-crystallin was labeled with fluorescent antibodies (immunohistology). The fluorescence was analyzed in photos, an equivalent surface was analyzed for all the photographs (n=51-59). Student's t test was performed.

[3] = test system: normal human keratinocytes (NHK); experiment: DNA-Array, mRNA expression in confluent keratinocytes; type: cell-based; settings: 4 ppm
Protocol: The following in vitro tests were performed on epidermal cells: normal human keratinocytes (NHK) or on skin explant or on reconstructed skin. The peptide according to the invention was tested, in solution in an inert solvent (ethanol), at recommended concentrations of use on the skin. The peptide according to the invention was contacted for 6 or 24 h with confluent KHN (n=3). Then the KHN mats were rinsed and the cells were crushed to extract their mRNAs. These mRNAs are then converted into small DNA sequences which are analyzed after deposition on DNA chips and amplification by a method similar to qRT-PCR (Real-Time Quantitative Reverse Transcription Polymerase Chain Reaction). The mRNA variations due to the peptide are compared to the control case (peptide solvent).

KLK5 (kallikrein 5) = experiment: KLK5 fluorescence immunohistology on abdominal skin explant; type: cell-based, human; settings: cream containing 6 ppm applied daily, 6 days, vs placebo cream
Excerpt: as §1
The same sections as those used for desmoglein, as well as the same method (fluorescence immunohistology) were used to analyze and quantify the effect of the peptide according to the invention on this desquamation marker.

[4] = test system: normal human keratinocytes (NHK); experiment: Immunocytochemistry of differentiation markers and ceramides in NHK; type: cell-based; settings: 2 ppm, 7 days
Protocol: Confluent NHKs (n=3) were cultured as previously for 7 days in the presence or absence (control) of the peptide according to the invention, then immunocytochemistry markings were carried out using antibodies directed against proteins characteristic of the maturation of the epidermis: involucrin, loricrin and filaggrin, or of moisturizing: filaggrin, as well as ceramides (structuring elements of the Stratum corneum).
(§3) A quantification of the number of cells was carried out in parallel for the 4 tests described in this part, so as to reduce the results to the number of cells.

transglutaminases = experiment: Transglutaminase activity (fluorescent dansylcadaverine) in NHK; type: cell-based, human; settings: contact up to 21 days
Protocol: (§4) Finally, the influence of the peptide according to the invention on the activity of transglutaminases and on the expression of the transglutaminase-5 gene was evaluated.
For this, confluent NHKs were brought into contact with the peptide according to the invention up to 21 days. Transglutaminase activity was assessed using a protocol using fluorescent dansylcadaverine which is bound to Stratum corneum proteins by these enzymes. An analysis of the fluorescence was performed, and the results compared to the solvent control.
as §3

filaggrin gene = experiment: qRT-PCR analysis of filaggrin gene expression; type: cell-based, human
Excerpt: The genes of loricrin, filaggrin and filaggrin 2, three proteins involved in the building of the corneocyte or the moisturisation of the Stratum corneum, were statistically better expressed than in the solvent control (p<0.01). […] 3.66 times compared to control (p<0.01).

transglutaminase-5 gene = experiment: Transglutaminase-5 gene expression (qRT-PCR) in KHN; type: cell-based, human; settings: 72 hours of contact
Protocol: as §4
With regard to transglutaminase-5, a qRT-PCR was performed after 72 hours of contact between the KHN and the peptide according to the invention.
as §3

[5] = test system: hyaluronic acid secretion in NHK; experiment: Hyaluronic acid secretion by keratinocytes (ELISA); type: cell-based, human; settings: for Hyaluronic acid % of variatio/control: ELISA
Protocol: The moisturizing aspect was evaluated by the assay of hyaluronic acid produced by keratinocytes by an ELISA method.
as §3

SMILES: CCCCCCCCCCCCCCCC(=O)NC(CCCCN)C(=O)NC(C(=O)NC(Cc1ccccc1)C(=O)NC(CCCCN)C(=O)O)C(C)O (stereo not shown) [peptide according to the invention, palmitoyl-lysyl-threonyl-phenylalanyl-lysine] (Palmitoyl-KTFK-OH; configuration not given here)
- Intracellular calcium mobilization (visual, fluorescence microscope) (confluent keratinocytes): induces an intracellular calcium mobilization
- ANCR ratio % of variation/control (Lnc-RNA ANCR; 4 ppm): −27%; p < 0.05
- ANCR ratio % of variation/control (Lnc-RNA ANCR; 6 ppm): −34%; p < 0.01
- Desmogleine % of variation/control (desmoglein): +24%; p < 0.01
- Toxic effects [1]: No toxic effects were noted.
- Variation with respect to the control of protein Filaggrin ([1]; LC-MS/MS): ×4.16
- Variation with respect to the control of protein Keratin 10 ([1]; LC-MS/MS): ×1.46
- Variation with respect to the control of protein NICE-1 ([1]; LC-MS/MS): ×3.42
- Variation with respect to the control of protein SPRR1A ([1]; LC-MS/MS): ×1.55
- Variation with respect to the control of protein α-cristallin ([1]; LC-MS/MS): ×2.19
- IL-1α % of variation/control (NHKs exposed to UVB; 2 ppm): −15%
- IL-1β % of variation/control (NHKs exposed to UVB; 2 ppm): −14%
- IL-6 % of variation/control (NHKs exposed to UVB; 2 ppm): −12%
- PGE2 % of variation/control (NHKs exposed to UVB; 2 ppm): −31%
- TNF-α % of variation/control (NHKs exposed to UVB; 2 ppm): −10%
- IL-1α % of variation/control (NHKs exposed to UVB; 4 ppm): −38%
- IL-1β % of variation/control (NHKs exposed to UVB; 4 ppm): −43%
- IL-6 % of variation/control (NHKs exposed to UVB; 4 ppm): −70%
- PGE2 % of variation/control (NHKs exposed to UVB; 4 ppm): −59%
- TNF-α % of variation/control (NHKs exposed to UVB; 4 ppm): −56%
- IL-1α % of variation/control (NHKs exposed to UVB; 6 ppm): −46%
- IL-1β % of variation/control (NHKs exposed to UVB; 6 ppm): −54%
- IL-6 % of variation/control (NHKs exposed to UVB; 6 ppm): −84%
- PGE2 % of variation/control (NHKs exposed to UVB; 6 ppm): −74%
- TNF-α % of variation/control (NHKs exposed to UVB; 6 ppm): −71%
- Toxic effects ([2]; 4 and 6 ppm, reconstructed skin): No toxic effects were noted.
- α-cristallin % of variation/control ([2]; 4 ppm): +61%; p < 0.01
- α-cristallin % of variation/control ([2]; 6 ppm): +164%; p < 0.01
- Toxic effects ([3]; 6 or 24 h contact): No toxic effects were noted.
- Increase in production of mRNA coding for TRPC6 compared with the solvent control ([3]; 6 h): 6.05 ×
- Variation with respect to the control of expression of gene coding for Filaggrin ([3]; 6 hours contact): ×2.32 *
- Variation with respect to the control of expression of gene coding for Filaggrin 2 ([3]; 6 hours contact): ×2.42 *
- Variation with respect to the control of expression of gene coding for Loricrin ([3]; 6 hours contact): ×2.97 *
- Variation with respect to the control of expression of gene coding for LCE2D ([3]; 24 hours contact): ×1.84 **
- Variation with respect to the control of expression of gene coding for LCE3B ([3]; 24 hours contact): ×2.13 **
- Variation with respect to the control of expression of gene coding for LCE3C ([3]; 24 hours contact): ×3.25 **
- Variation with respect to the control of expression of gene coding for LCE3D ([3]; 24 hours contact): ×2.06 **
- Variation with respect to the control of expression of gene coding for LCE3E ([3]; 24 hours contact): ×2.33 **
- Variation with respect to the control of expression of gene coding for SPRR2B ([3]; 24 hours contact): ×2.13 **
- Variation with respect to the control of expression of gene coding for SPRR2C ([3]; 24 hours contact): ×1.58 **
- KLK5 % of variation/control (KLK5 (kallikrein 5)): +258%; p < 0.01
- Toxic effects [4]: No toxic effects were noted.
- Ceramides % of variation/control ([4]; immunofluorescence): +334%;
- Filaggrin % of variation/control ([4]; immunofluorescence): +554%;
- Involucrin % of variation/control ([4]; immunofluorescence): +60%;
- Loricrin % of variation/control ([4]; immunofluorescence): +261%;
- Transglutaminase Intra-KHN activity % of variation/control (transglutaminases; 4 ppm): +45%; p < 0.01
- Transglutaminase Intra-KHN activity % of variation/control (transglutaminases; 6 ppm): +107%; p < 0.01
- Increase of filaggrin gene expression compared to control (qRT-PCR) (filaggrin gene; 4 ppm): 2.87 times
- Increase of filaggrin gene expression compared to control (qRT-PCR) (filaggrin gene; 6 ppm): 3.66 times
- Transglutaminase-5 Gene expression % of variation/control (transglutaminase-5 gene; 4 ppm): +133%; p < 0.01
- Transglutaminase-5 Gene expression % of variation/control (transglutaminase-5 gene; 6 ppm): +798%; p < 0.01
- Toxic effects ([5]; 4 and 6 ppm): No toxic effects were noted.
- Hyaluronic acid % of variatio/control ([5]; 4 ppm): +40%; p < 0.01
- Hyaluronic acid % of variatio/control ([5]; 6 ppm): +91%; p < 0.01
